Measured values as given in ChEMBL document CHEMBL3120092, “Discovery of GS-9669, a thumb site II non-nucleoside inhibitor of NS5B for the treatment of genotype 1 chronic hepatitis C infection” (J Med Chem, 2014).

Experiments:
[1] = Cytotoxicity against human HuH7 cells after 3 days by Cell Titre Glo assay; format: cell-based, Huh-7
Hepatitis C virus [2] = test: Antiviral activity against Hepatitis C virus H77 genotype 1a infected in human HuH7 cells assessed as intrinsic antiviral potency after 72 hrs by luciferase reporter gene assay; format: functional, organism-based, Hepacivirus hominis; details: genotype 1a H77, Huh-7, 72 h
Hepatitis C virus [3] = test: Antiviral activity against Hepatitis C virus H77 genotype 1a infected in human HuH7 cells assessed as observed antiviral potency after 72 hrs by luciferase reporter gene assay; format: functional, organism-based, Hepacivirus hominis; details: genotype 1a H77, Huh-7, 72 h
Hepatitis C virus [4] = test: Antiviral activity against Hepatitis C virus Con1 genotype 1b infected in human HuH7 cells after 72 hrs by luciferase reporter gene assay; format: functional, organism-based, Hepacivirus hominis; details: isolate Con1, Huh-7, 72 h
[5] = Fraction unbound in cell culture medium at 2 uM at pH 7.4 by equilibrium dialysis method; format: ADME
[6] = Cytotoxicity against human MT4 cells after 5 days by Cell Titre Glo assay; format: cell-based
Hepatitis C virus [7] = test: Antiviral activity against HCV genotype 1b infected in human patient assessed as log10 reduction in viral RNA in plasma at 750 mg/kg, bid after 3 days; format: functional, Hepacivirus hominis
Hepatitis C virus [8] = test: Antiviral activity against HCV infected in human patient assessed as log10 reduction in viral RNA in plasma at 500 mg/kg, qd after 3 days; format: functional, Hepacivirus hominis
[9] = Half life in human patient infected with chronic HCV; format: ADME, organism-based; details: in vivo
Hepatitis C virus [10] = test: Selectivity ratio of EC50 for HCV genotype 1b harboring NS5B polymerase M423T mutant to EC50 for HCV genotype 1b harboring wild type NS5B polymerase; format: functional, Hepacivirus hominis
Hepatitis C virus [11] = test: Antiviral activity against HCV genotype 1b harboring NS5B polymerase M423T mutant infected in human HuH7-Lunet cells by luciferase reporter gene assay; format: functional, organism-based, Hepacivirus hominis; details: Huh-7
Hepatitis C virus [12] = test: Antiviral activity against HCV genotype 1b harboring wild type NS5B polymerase infected in human HuH7-Lunet cells by luciferase reporter gene assay; format: functional, organism-based, Hepacivirus hominis; details: Huh-7
[13] = Intrinsic cytotoxicity against human MT4 cells after 5 days by Cell Titre Glo assay; format: cell-based
Hepatitis C virus [14] = test: Antiviral activity against Hepatitis C virus H77 genotype 1a infected in human HuH7 cells assessed as plasma adjusted antiviral potency after 72 hrs by luciferase reporter gene assay; format: functional, organism-based, Hepacivirus hominis; details: genotype 1a H77, Huh-7, Plasma
[15] = Mean residence time in Sprague-Dawley rat at 0.5 mg/kg, iv; format: ADME, organism-based; parameters: dose 0.5 mg/kg, route intravenous; details: in vivo
[16] = Lipophilicity, log D of the compound by chromatography; format: physicochemical
[17] = Mean residence time in Sprague-Dawley rat at 0.4 mg/kg, iv; format: ADME, organism-based; parameters: dose 0.4 mg/kg, route intravenous; details: in vivo
Hepatitis C virus [18] = test: Antiviral activity against HCV genotype 1 infected in human patient assessed as log10 reduction in viral RNA in plasma at 700 mg/kg, bid after 8 days; format: functional, Hepacivirus hominis

Structure (SMILES): CC(C)(C)C#Cc1cc(N(C(=O)[C@H]2CC[C@H](C)CC2)[C@H]2CC[C@H](O)CC2)c(C(=O)O)s1 [LOMIBUVIR]
- CC50 at 72 h [1]: ≥ 20000 nM
- EC50 (Hepatitis C virus [2]): 2.8 nM
- EC50 (Hepatitis C virus [3]): 13 nM
- EC50 (Hepatitis C virus [4]): 6 nM
- fraction unbound at 2 µM [5]: 0.19
- CC50 at 120 h [6]: > 20000 nM
- FC (Hepatitis C virus [7]): 3.7

Structure (SMILES): CC1=CC[C@H](C(=O)N(c2cc(C#CC(C)(C)C)sc2C(=O)O)[C@H]2CC[C@](O)(CO[C@H]3CCOC3)CC2)CC1 [RADALBUVIR]
- FC (Hepatitis C virus [8]): 3.6
- half-life [9]: 6 h
- Ratio EC50 (Hepatitis C virus [10]): 2
- EC50 (Hepatitis C virus [11]): 14 nM
- EC50 (Hepatitis C virus [12]): 6 nM
- CC50 at 120 h [13]: 12100 nM
- EC50 (Hepatitis C virus [14]): 128 nM
- MRT [15]: 2.7 h
- EC50 (Hepatitis C virus [2]): 2.9 nM
- EC50 (Hepatitis C virus [3]): 11 nM
- CC50 at 120 h [6]: > 20000 nM

Structure (SMILES): CC(C)(C)C#Cc1cc(N(C(=O)[C@H]2CC[C@H](C)CC2)[C@H]2CC[C@H](Oc3ccc4nccn4n3)CC2)c(C(=O)O)s1
- CC50 at 120 h [13]: 133 nM
- chromatographic logD [16]: 2.4
- EC50 (Hepatitis C virus [14]): 1130 nM
- MRT [17]: 6.2 h
- EC50 (Hepatitis C virus [2]): 1.3 nM
- EC50 (Hepatitis C virus [3]): 192 nM
- CC50 at 120 h [6]: > 20000 nM

Structure (SMILES): CCc1cc(CC[C@]2(C3CCCC3)CC(O)=C(Cc3nc4nc(C)cc(C)n4n3)C(=O)O2)cc(CC)n1 [FILIBUVIR]
- FC (Hepatitis C virus [18]): 2.3
